Data set [1] concerns the target T1, C-Raf (Homo sapiens, UniProt P04049, Y340E/Y341E).
T1 construct: His tag (implied by nickel chromatography) and/or StrepII tag; made in house; host or cells: Sf9 insect cells (baculovirus) for CRAF and h14-3-3 zeta; E. coli for MEK1
In words: In Vitro Raf Activity Determination (Alpha Screen, phosphorylation of kinase dead MEK1). It counts as biochemical. The text has this:
CRAF cDNA was subcloned as full length protein, with Y340E and Y341E activating mutations, into a baculovirus expression vector for Sf9 insect cell expression. h14-3-3 zeta cDNA was subcloned into a baculovirus expression vector for SF9 insect cell expression. Sf9 cells co-expressing both proteins were lysed and subjected to immobilized nickel chromatography and eluted with Imidazole. A second column (StrepII binding column) was used and eluted with desthiobiotin. Protein Tags were removed using Prescission enzyme and the protein was further purified using a flowthrough step to remove tags.
C-Raf TR refers to a truncated C-Raf protein, a Δ1-324 deletion mutant. C-Raf FL refers to the full-length C-Raf protein.
Full length MEK1 with an inactivating K97R ATP binding site mutation is utilized as a RAF substrate. The MEK1 cDNA was subcloned with an N-terminal (his)6 tag into a vector for E. Coli expression. The MEK1 substrate was purified from E. Coli lysate by nickel affinity chromatography followed by anion exchange. The final MEK1 preparation was biotinylated (Pierce EZ-Link Sulfo-NHS-LC-Biotin) and concentrated.
Assay Materials: Assay buffer is 50 mM Tris, pH 7.5, 15 mM MgCl2, 0.01% Bovine Serum Albumin (BSA) and 1 mM dithiothreitol (DTT); Stop buffer is 60 mM ethylenediaminetetraacetic acid (EDTA) and 0.01% Tween® 20; b-Raf (V600E), active; biotinylated Mek, kinase dead; Alpha Screen detection kit (available from PerkinElmer™ #6760617R); Anti phospho-MEK1/2 (available from Cell Signaling Technology, Inc. #9121); 384 well low volume assay plates (White Greiner® plates).
Assay conditions: b-Raf (V600E) approximately 4 pM; c-Raf approximately 4 nM; biotinylated Mek, kinase dead approximately 10 nM; ATP 10 μM for BRAF (V600E) and 1 μM for CRAF; Pre-incubation time with compounds 60 minutes at room temperature; Reaction time 1 or 3 hours at room temperature.
Assay protocol: Raf and biotinylated Mek (kinase dead) were combined at 2× final concentrations in assay buffer (50 mM Tris, pH 7.5, 15 mM MgCl2, 0.01% BSA and 1 mM DTT) and dispensed […] per well in assay plates (Greiner white 384 well assay plates #781207) containing […] of 40× of a Raf kinase inhibitor test compound diluted in 100% DMSO. The plate was incubated for 60 minutes at room temperature. The Raf kinase activity reaction was started by the addition of […] per well of 2×ATP diluted in assay buffer. After 3 hours (b-Raf(V600E)) or 1 hour (c-Raf). The reactions were stopped and the phosphorylated product was measured using a rabbit anti-p-MEK (Cell Signaling, #9121) antibody and the Alpha Screen IgG (ProteinA) detection Kit (PerkinElmer #6760617R), by the addition of […] to the well of a mixture of the antibody (1:2000 dilution) and detection beads (1:2000 dilution of both beads) in Stop/bead buffer (25 mM EDTA, 50 mM Tris, pH 7.5, 0.01% Tween20). The additions were carried out under dark conditions to protect the detection beads from light. A lid was placed on top of the plate and incubated for 1 hour at room temperature, after which the luminescence was read on a PerkinElmer Envision instrument. The concentration of each compound for 50% inhibition (IC50) was calculated by non-linear regression using XL Fit data analysis software.

A short description of data set [2]: high throughput solubility assay. The format is physicochemical. The conditions noted are these: for solubility: buffer solution, thermodynamic from solid. On the procedure:
Solubility of the compounds of the invention was assessed in a high throughput solubility assay: compounds were received as 10 mM DMSO solutions. The DMSO stock solution was then transferred into a microtiter plate. The DMSO solvent was dried with a solvent evaporator (GeneVac). After the addition of buffer solution (pH 6.8, pH 4.0 or FaSSIF), the plate was sealed and shaken for 16-24 hours at room temperature. The plate was centrifuged for phase separation and the supernatant quantified by a RapidFire 365 High-throughput MS System (Agilant) coupled with a mass spectrometer (Sciex), using a calibration curve constructed with the same DMSO stock solution. Solubility results (μM) are obtained in triplicate.

Where [3] appears, read: c-Raf approximately 4 nM, ATP 1 μM, pre-incubation 60 minutes, reaction 1 hour at room temperature, read-out: C-Raf.
Where [4] appears, read: phosphate Example itself, buffer (pH 6.8, pH 4.0 or FaSSIF) not given, 16-24 hours at room temperature.

pIC50: −log10 of the molar value. In brackets after ≈: the same amount, converted by molar mass. Where two headings read alike, the source gives them in different places.

T1 sequence (P04049 whole entry Y340E/Y341E): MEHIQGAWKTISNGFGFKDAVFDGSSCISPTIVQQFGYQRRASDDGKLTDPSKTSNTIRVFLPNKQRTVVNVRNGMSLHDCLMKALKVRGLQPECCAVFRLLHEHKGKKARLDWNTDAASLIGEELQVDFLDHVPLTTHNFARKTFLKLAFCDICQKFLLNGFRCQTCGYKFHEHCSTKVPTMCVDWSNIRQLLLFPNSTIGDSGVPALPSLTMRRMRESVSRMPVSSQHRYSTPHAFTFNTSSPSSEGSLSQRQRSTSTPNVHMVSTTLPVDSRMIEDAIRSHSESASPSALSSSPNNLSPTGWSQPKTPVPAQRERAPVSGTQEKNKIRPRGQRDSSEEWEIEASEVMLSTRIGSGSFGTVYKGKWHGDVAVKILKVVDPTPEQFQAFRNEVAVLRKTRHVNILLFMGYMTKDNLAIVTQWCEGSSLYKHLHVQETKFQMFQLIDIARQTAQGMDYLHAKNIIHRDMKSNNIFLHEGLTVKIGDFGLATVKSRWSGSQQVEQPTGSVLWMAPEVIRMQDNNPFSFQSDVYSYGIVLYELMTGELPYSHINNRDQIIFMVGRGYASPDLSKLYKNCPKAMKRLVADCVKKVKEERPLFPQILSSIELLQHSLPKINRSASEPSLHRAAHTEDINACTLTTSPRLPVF
T1 sequence (P63104 whole entry partner): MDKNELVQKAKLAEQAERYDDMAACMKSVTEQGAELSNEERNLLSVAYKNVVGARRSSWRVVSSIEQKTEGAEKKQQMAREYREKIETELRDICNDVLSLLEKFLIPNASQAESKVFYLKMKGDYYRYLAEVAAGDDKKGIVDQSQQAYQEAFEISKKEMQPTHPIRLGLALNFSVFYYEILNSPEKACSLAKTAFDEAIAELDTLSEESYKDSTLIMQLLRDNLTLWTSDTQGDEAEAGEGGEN

Usually solubility stands for the dissolved amount per volume that the medium holds. Regarding `Cc1ccc(NC(=O)c2ccnc(C(C)(F)F)c2)cc1-c1cc(OCCOP(=O)(O)O)nc(N2CCOCC2)c1` [Example 10, 2-((4-(5-(2-(1,1-difluoroethyl)isonicotin amido)-2-methylphenyl)-6-morpholinopyridin-2-yl)oxy)ethyl dihydrogen phosphate], the pIC50 in data set [1] (setting [3]) is 9.52. The compound further had a solubility in data set [2] (setting [4]) of 635 µM.

For the compound `Cc1ccc(NC(=O)c2ccnc(C(C)(C)F)c2)cc1-c1cc(OCCOP(=O)(O)O)nc(N2CCOC[C@H]2C)c1` [Example 11, (R)-2-((4-(5-(2-(2-fluoropropan-2-yl)isonicotinamido)-2-methylphenyl)-6-(3-methylmorpholino)pyridin-2-yl)oxy)ethyl dihydrogen phosphate], in data set [1] (setting [3]), the pIC50 was 8.70. For the same compound, the solubility in data set [2] (setting [4]) is less than 1000 µM.

As to `Cc1ccc(NC(=O)c2ccnc(C(C)(C)F)c2)cc1-c1cc(OCCOP(=O)(O)O)nc(N2CCOCC2)c1` [Example 9, 2-((4-(5-(2-(2-fluoropropan-2-yl)isonicotinamido)-2-methylphenyl)-6-morpholinopyridin-2-yl)oxy)ethyl dihydrogen phosphate], the pIC50 in data set [1] (setting [3]) is 9.30. Also, in data set [2] (setting [4]), the solubility was determined as 841 µM.

`Cc1ccc(NC(=O)c2cc(C(F)(F)F)ccn2)cc1-c1cc(OC[C@@H](O)COP(=O)(O)O)nc(N2CCOCC2)c1` [Example 3, (R)-2-hydroxy-3-((4-(2-methyl-5-(4-(trifluoromethyl)picolinamido)phenyl)-6-morpholinopyridin-2-yl)oxy)propyl dihydrogen phosphate]: the pIC50 in data set [1] (setting [3]) was 10.62. The compound also registered a solubility in data set [2] (setting [4]) of 987 µM.

As for `Cc1ccc(NC(=O)c2cccc(C(F)(F)F)c2)cc1-c1cnc(OCCOP(=O)(O)O)c(N2CCOCC2)c1` [Example 16, 2-((5-(2-methyl-5-(3-(trifluoromethyl)benzamido)phenyl)-3-morpholinopyridin-2-yl)oxy)ethyl dihydrogen phosphate], the pIC50 in data set [1] (setting [3]) is 9.00. Further, the solubility in data set [2] (setting [4]) is less than 1000 µM.

For the compound `Cc1ccc(NC(=O)c2cccc(C(F)(F)F)c2)cc1-c1cc(OCCOP(=O)(O)O)nc(N2CCOCC2)c1` [Example 7, 2-((4-(2-methyl-5-(3-(trifluoromethyl)benzamido)phenyl)-6-morpholinopyridin-2-yl)oxy)ethyl dihydrogen phosphate], the pIC50 in data set [1] (setting [3]) was 10.30. This compound also had a solubility in data set [2] (setting [4]) of 124 µM.

For `Cc1ccc(NC(=O)c2cccc(C(F)(F)F)c2)cc1-c1cc(OCCOP(=O)(O)O)nc(N2CCOC[C@H]2C)c1` [Example 2, (R)-2-((4-(2-methyl-5-(3-(trifluoromethyl)benzamido)phenyl)-6-(3-methylmorpholino)pyridin-2-yl)oxy)ethyl dihydrogen phosphate], in data set [1] (setting [3]), the pIC50 is 8.22. Besides, the solubility in data set [2] (setting [4]) was less than 1000 µM.

Take `Cc1ccc(NC(=O)c2ccnc(C(F)(F)F)c2)cc1-c1cc(OCCOP(=O)(O)O)nc(N2CCOC[C@H]2C)c1` [Example 12, (R)-2-((4-(2-methyl-5-(2-(trifluoromethyl)-isonicotinamido)phenyl)-6-(3-methyl-morpholino)pyridin-2-yl)oxy)ethyl dihydrogen phosphate]: the pIC50 in data set [1] (setting [3]) is 8.70. This compound displayed a solubility in data set [2] (setting [4]) of 939 µM.

Regarding `Cc1ccc(NC(=O)c2ccnc(C(C)(F)F)c2)cc1-c1cc(OCCOP(=O)(O)O)nc(N2CCOC[C@H]2C)c1` [Example 6, (R)-2-((4-(5-(2-(1,1-difluoroethyl)isonicotin amido)-2-methylphenyl)-6-(3-methylmorpholino)pyridin-2-yl)oxy)ethyl dihydrogen phosphate], the pIC50 in data set [1] (setting [3]) was 9.52. The compound further had a solubility in data set [2] (setting [4]) of 675 µM.

Consider `Cc1ccc(NC(=O)c2ccnc(C(F)(F)F)c2)cc1-c1cc(OCCOP(=O)(O)O)nc(N2CCOCC2)c1` [Example 1, 2-((4-(2-methyl-5-(2-(trifluoromethyl)isonicotinamido)phenyl)-6-morpholinopyridin-2-yl)oxy)ethyl dihydrogen phosphate], for which the pIC50 in data set [1] (read-out: inhibitory efficacy for C-Raf) is 10.00. Further, the “improvement of solubility compared with the corresponding non-phosphate molecule” value in data set [2] (874 μM versus 18 μM) is “greater than 48 fold”. Further, the solubility in data set [2] (buffer not stated) came to 874 µM.

As for `Cc1ncc(NC(=O)c2cccc(C(F)(F)F)c2)cc1-c1cc(OCCOP(=O)(O)O)nc(N2CCOC[C@H]2C)c1` [Example 4, (R)-2-((2-methyl-6′-(3-methylmorpholino)-5-(3-(trifluoromethyl)-benzamido)-[3,4′-bipyridin]-2′-yl)oxy)-ethyl dihydrogen phosphate], the pIC50 in data set [1] (setting [3]) is 9.15. The compound also yielded a solubility in data set [2] (setting [4]) of 617 µM.

`Cc1ccc(NC(=O)c2ccnc(C(F)(F)F)c2)cc1-c1cc(OCCO)nc(N2CCOCC2)c1` [N-(3-(2-(2-hydroxyethoxy)-6-morpholinopyridin-4-yl)-4-methylphenyl)-2-(trifluoromethyl)isonicotinamide, reference compound]: the concentration in solution in data set [2] (buffer not stated) (solubility) was 18 µM (≈ 9.04 µg/mL).

On to `Cc1ncc(NC(=O)c2cccc(C(F)(F)F)c2)cc1-c1cnc(OCCOP(=O)(O)O)c(N2CCOCC2)c1` [Example 18, 2-((2′-methyl-5-morpholino-5′-(3-(trifluoromethyl)benzamido)-[3,3′-bipyridin]-6-yl)oxy)ethyl dihydrogen phosphate], for which the pIC50 in data set [1] (setting [3]) was 10.70.

As to `Cc1ccc(NC(=O)c2ccnc(C(C)(F)F)c2)cc1-c1cnc(OCCOP(=O)(O)O)c(N2CCOCC2)c1` [Example 14, 2-((5-(5-(2-(1,1-difluoroethyl)isonicotin amido)-2-methylphenyl)-3-morpholinopyridin-2-yl)oxy)ethyl dihydrogen phosphate], the pIC50 in data set [1] (setting [3]) is 10.40. Further, the solubility in data set [2] (setting [4]) turned out to be 897 µM.

For the compound `Cc1ccc(NC(=O)c2ccnc(C(C)(C)F)c2)cc1-c1cnc(OCCOP(=O)(O)O)c(N2CCOCC2)c1` [Example 15, 2-((5-(5-(2-(2-fluoropropan-2-yl)isonicotinamido)-2-methylphenyl)-3-morpholinopyridin-2-yl)oxy)ethyl dihydrogen phosphate], in data set [1] (setting [3]), the pIC50 is 9.40. Further, the solubility in data set [2] (setting [4]) is 936 µM.

For `Cc1ccc(NC(=O)c2ccnc(C(F)(F)F)c2)cc1-c1cnc(OCCOP(=O)(O)O)c(N2CCOCC2)c1` [Example 13, 2-((5-(2-methyl-5-(2-(trifluoromethyl)isonicotinamido)phenyl)-3-morpholinopyridin-2-yl)oxy)ethyl dihydrogen phosphate], the pIC50 in data set [1] (setting [3]) was 10.52. For the same compound, the solubility in data set [2] (setting [4]) is 792 µM.

On to `Cc1ncc(NC(=O)c2cccc(C(F)(F)F)c2)cc1-c1cc(OCCOP(=O)(O)O)nc(N2CCOCC2)c1` [Example 5, 2-((2-methyl-6′-morpholino-5-(3-(trifluoromethyl)benz amido)-[3,4′-bipyridin]-2′-yl)oxy)ethyl dihydrogen phosphate], for which, in data set [1] (setting [3]), the pIC50 is 10.00. Also, the solubility in data set [2] (setting [4]) came to 725 µM.

Regarding `Cc1ccc(NC(=O)c2cc(C(F)(F)F)ccn2)cc1-c1cc(OCCOP(=O)(O)O)nc(N2CCOCC2)c1` [Example 17, 2-((4-(2-methyl-5-(4-(trifluoromethyl)picolin amido)phenyl)-6-morpholinopyridin-2-yl)oxy)ethyl dihydrogen phosphate], in data set [1] (setting [3]), the pIC50 is 10.70. Further, the solubility in data set [2] (setting [4]) was 253 µM.

Source of the values: patent publication US9573969B2, “Compounds and compositions as kinase inhibitors” (NOVARTIS AG, priority 2014, dated 2017).
